Measured values reported in patent US12252481B2, “Anti-viral compounds” (Aligos Therapeutics, Inc., priority 2021, dated 2025).
Like-named read-outs stand apart in the source and are kept apart here.

Legend:
[1] = molecular target: T1, SARS-Cov-2 3CLpro (Severe acute respiratory syndrome coronavirus 2, UniProt P0DTD1); assay: biochemical
T1 construct: 3CLpro and HRV3C was added using a Multidrop Combi

[2] = molecular target: T2, HRV3C (Human rhinovirus 14, UniProt P03303); assay: biochemical; set-up: species or system HRV
T2 construct: 3CLpro and HRV3C was added using a Multidrop Combi

[3] = tested on: human beta-coronavirus OC43; assay: OC43 coronavirus antiviral assay in HeLa cells (cytopathic effect, cell-titer-glo); type: cell-based; details: 6 days at 33° C., read-out: EC50 (class)
[4] = tested on: SARS-CoV-2-GHB-03021/2020; type: cell-based; details: read-out: VeroE6 + CP (EC50)
[5] = tested on: B.1.1.7 lineage SARS-CoV-2; assay: microbe, parasite or virus in culture; type: cell-based
[6] = molecular target: T3, human cathepsin L (Homo sapiens, UniProt P07711); assay: Cathepsin L assay (Z-FR-AMC fluorescence); type: biochemical; details: 10 pM human cathepsin L, 30 mins preincubation, Z-FR-AMC 2 μM
T3 construct: purchased R&D Systems
Summary of the method: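 IC50 values were taken from four-parameter fits of fluorescence read at 355/460 nm every 2 minutes for 30 minutes. The reaction started when 2 μM Z-FR-AMC was added. Before that, 10 pM human cathepsin L had been preincubated with inhibitor for 30 minutes.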

[7] = in vitro; details: human
[8] = in vitro; details: human; remark: listed apart in the source
[9] = tested on: HeLa cells
[10] = tested on: Vero E6-eGFP cells; details: read-out: VeroE6 + CP (CC50), absence of virus, numeric values
[11] = tested on: A549-dual_ACE2_TMPRSS2 cells; details: read-out: A549-dual_ACE2_TMPRSS2 (CC50); assay medium without virus, MTS, numeric values
[12] = Cytotoxicity in HeLa cells without OC43 virus (cell-titer-glo); details: human
[13] = tested on: SARS-CoV-2; details: cited from earlier work
[14] = molecular target: 3CLpro (Severe acute respiratory syndrome coronavirus 2, UniProt P0DTD1); details: cited from earlier work
[15] = 3CLpro, 30 mins preincubation, SAMDI-MS, read-out: SARS-Cov-2 IC50 (class)
[16] = HRV3C, 30 mins preincubation, SAMDI-MS, read-out: HRV IC50 (bound)
[17] = Betacoronavirus 1, OC43, HeLa, 144 h
[18] = Severe acute respiratory syndrome coronavirus 2, 96 h; read-out: A549-dual_ACE2_TMPRSS2 (EC50)
[19] = read-out: A549-dual_ACE2_TMPRSS2 (EC50)

T3 sequence (P07711 114-333): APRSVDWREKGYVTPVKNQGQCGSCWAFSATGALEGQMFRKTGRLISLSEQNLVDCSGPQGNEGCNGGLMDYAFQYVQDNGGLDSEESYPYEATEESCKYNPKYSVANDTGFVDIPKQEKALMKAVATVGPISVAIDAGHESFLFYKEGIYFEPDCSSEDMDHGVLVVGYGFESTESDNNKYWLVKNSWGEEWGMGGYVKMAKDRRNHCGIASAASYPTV
T2 sequence (P03303 1538-1719): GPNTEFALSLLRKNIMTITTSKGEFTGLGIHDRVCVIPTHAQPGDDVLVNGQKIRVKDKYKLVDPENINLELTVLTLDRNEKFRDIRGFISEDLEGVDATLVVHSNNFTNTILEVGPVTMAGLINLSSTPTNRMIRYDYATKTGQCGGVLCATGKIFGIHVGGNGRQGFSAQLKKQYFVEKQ

Compound | IC50 [1, 15] [nM] | IC50 [2, 16] [nM] | EC50 [3, 17] [nM] | EC50 [4] [nM] | EC50 [5, 18] [nM] | IC50 [6] [nM] | CC50 [7] [nM] | CC50 [8] [nM] | other results
Cc1cn(C(C(=O)N2C[C@H]3[C@@H]([C@H]2C(=O)N[C@H](C#N)C[C@@H]2CCNC2=O)[C@H]2C=C[C@@H]3C2)C(C)(C)C)nn1 (stereo partly shown) [Compound 53] | 20 to 200 | > 10000 | 1000 to 10000 | 100 to 1000 | 1000 to 10000 | ≥ 10000 | > 10000 | > 10000 | –
[2H]C1=C[C@@H]2C[C@H]1[C@H]1[C@@H]2CN(C(=O)[C@@H](NC(=O)C(F)(F)C(F)(F)F)C(C)(C)C)[C@@H]1C(=O)N[C@H](C#N)C[C@@H]1CCNC1=O [Compound 125] | < 20 | > 500 | < 100 | – | – | – | > 100000 | – | –
CC(C)(C)[C@H](NC(=O)C(F)(F)Cl)C(=O)N1C[C@@H]2[C@H]3C[C@@H]([C@@H]2[C@H]1C(=O)N[C@H](C#N)C[C@@H]1CCNC1=O)[C@H](F)C3 [Compound 134, (1S,3aR,4S,6R,7S,7aR)-2-((S)-2-(2-chloro-2,2-difluoroacetamido)-3,3-dimethylbutanoyl)-N-((S)-1-cyano-2-((S)-2-oxopyrrolidin-3-yl)ethyl)-6-fluorooctahydro-1H-4,7-methanoisoindole-1-carboxamide] | < 20 | > 500 | < 100 | – | – | ≥ 10000 | > 100000 | – | –
CO[C@H](C(C)C)[C@H](NC(=O)C(F)(F)C(F)(F)F)C(=O)N1C[C@H]2[C@@H]([C@H]1C(=O)N[C@H](C#N)C[C@@H]1CCNC1=O)[C@H]1C=C[C@@H]2C1 [Compound 135] | < 20 | > 500 | – | – | < 100 | ≥ 10000 | – | > 1000 | –
CC(C)(C)[C@H](NC(=O)C(F)(F)F)C(=O)N1C[C@@H]2[C@@H]3CC[C@@H](C3)[C@@H]2[C@H]1C(=O)N[C@H](C#N)C[C@@H]1CC2(CC2)NC1=O [Example 15, (1S,3aR,4R,7S,7aS)-N-((S)-1-cyano-2-((R)-5-oxo-4-azaspiro[2.4]heptan-6-yl)ethyl)-2-((S)-3,3-dimethyl-2-(2,2,2-trifluoroacetamido)butanoyl)octahydro-1H-4,7-methanoisoindole-1-carboxamide] | < 20 | > 10000 | – | < 100 | < 100 | ≥ 10000 | – | > 10000 | –
CC(C)(C)[C@H](NC(=O)C1(C(F)(F)F)CC1)C(=O)N1C[C@H]2[C@@H]([C@H]1C(=O)N[C@H](C#N)C[C@@H]1CCNC1=O)[C@H]1C=C[C@@H]2C1 [Example 20, (1R,2S,3S,6R,7S)—N-[(1S)-1-cyano-2-[(3S)-2-oxopyrrolidin-3-yl]ethyl]-4-[(2S)-3,3-dimethyl-2-{[1-(trifluoromethyl)cyclopropyl]formamido}butanoyl]-4-azatricyclo[5.2.1.0^{2,6}]dec-8-ene-3-carboxamide] | < 20 | > 10000 | – | < 100 | – | ≥ 10000 | – | – | EC50 [3]: < 100 nM; EC50 [5, 19]: 100 to 1000 nM; CC50 [9]: > 100000 nM; CC50 [10]: > 50000 nM; CC50 [11]: > 10000 nM
CC(C)(C)[C@H](NC(=O)C1CC1)C(=O)N1C[C@H]2[C@@H]([C@H]1C(=O)N[C@H](C#N)C[C@@H]1CCNC1=O)[C@H]1C=C[C@@H]2C1 [Example 21, (1R,2S,3S,6R,7S)—N-[(1S)-1-cyano-2-[(3S)-2-oxopyrrolidin-3-yl]ethyl]-4-[(2S)-2-(cyclopropylformamido)-3,3-dimethylbutanoyl]-4-azatricyclo[5.2.1.0^{2,6}]dec-8-ene-3-carboxamide] | < 20 | > 10000 | – | < 100 | – | ≥ 10000 | – | – | EC50 [3]: < 100 nM; EC50 [5, 19]: < 100 nM; CC50 [9]: > 100000 nM; CC50 [10]: > 50000 nM; CC50 [11]: > 10000 nM
CC(C)(C)[C@H](NC(=O)C(F)(F)F)C(=O)N1C[C@H]2[C@@H]([C@H]1C(=O)N[C@H](C#N)C[C@@H]1CCNC1=O)[C@H]1C=C[C@@H]2C12CC2 [Example 25, (1′R,2′S,3′S,6′R,7′S)—N-[(1S)-1-cyano-2-[(3S)-2-oxopyrrolidin-3-yl]ethyl]-4′-[(2S)-3,3-dimethyl-2-(2,2,2-trifluoroacetamido)butanoyl]-4′-azaspiro[cyclopropane-1,10′-tricyclo[5.2.1.0^{2,6}]decan]-8′-ene-3′-carboxamide] | – | – | < 100 | 100 to 1000 | – | ≥ 10000 | – | > 10000 | IC50 [1]: < 20 nM; IC50 [2]: > 10000 nM; EC50 ([5]; Severe acute respiratory syndrome coronavirus 2, 96 h, read-out: A549-dual_ACE2_TMPRSS2 (EC50)): 100 to 1000 nM; CC50 at 6 days [12]: > 100000 nM
CC(C)(C)[C@H](NC(=O)C(F)(F)F)C(=O)N1C[C@H]2[C@@H]([C@H]1C(=O)N[C@H](C#N)CC1Cc3ccccc3NC1=O)[C@H]1C=C[C@@H]2C1 (stereo partly drawn) [Example 29, (1S,3aR,4S,7R,7aS)—N-((1S)-1-cyano-2-(2-oxo-1,2,3,4-tetrahydroquinolin-3-yl)ethyl)-2-((S)-3,3-dimethyl-2-(2,2,2-trifluoroacetamido)butanoyl)-2,3,3a,4,7,7a-hexahydro-1H-4,7-methanoisoindole-1-carboxamide] | < 20 | > 10000 | < 100 | < 100 | < 100 | ≥ 10000 | > 10000 | > 10000 | –
CC(C)(C)[C@H](NC(=O)C(F)(F)F)C(=O)N1C[C@@H]2[C@@H]3CC[C@@H](C3)[C@@H]2[C@H]1C(=O)N[C@H](C#N)CC1Cc2ccccc2NC1=O (stereo partly drawn) [Example 31, (1S,3aR,4R,7S,7aS)—N-((1S)-1-cyano-2-(2-oxo-1,2,3,4-tetrahydroquinolin-3-yl)ethyl)-2-((S)-3,3-dimethyl-2-(2,2,2-trifluoroacetamido)butanoyl)octahydro-1H-4,7-methanoisoindole-1-carboxamide] | < 20 | > 10000 | 100 to 1000 | 100 to 1000 | < 100 | ≥ 10000 | > 10000 | > 10000 | –
CN1CCN(C(=O)N[C@@H](Cc2ccccc2)C(=O)N[C@H](/C=C/S(=O)(=O)c2ccccc2)CCc2ccccc2)CC1 [Example K117777] | – | – | – | – | – | – | – | – | antiviral effect ([13]; A549-ACE2 when TMPRSS2 was expressed (Steuten et al.)): abolished; inhibition of SARS-CoV-2 ([13]; VeroE6, A549-ACE2 and/or HeLa-ACE2 (Mellott et al.)): potent inhibition; inhibitory effect on the 3CLpro [14]: lacks an inhibitory effect
